Assay results reported in patent US20260027073A1, “USE OF SMALL-MOLECULE COMPOUND HAVING NAPHTHYLAMINE STRUCTURE” (HANGZHOU PHECDAMED CO., LTD., priority 2023, published 2026).

Legend:
[1] = tested on: LPS-induced acute lung injury mice; assay: Survival in LPS-induced acute lung injury; assay type: in vivo, C57 mice; settings: 20 mg/kg intraperitoneal once a day; up to 9 days; FIG. 28
Experimental: The model was constructed as follows, male mice C57 aged 6-8 weeks and weighing 18-22 g were anesthetized and fixed, and then 20 mg/kg LPS (E.coil) was dissolved in 50 μl of PBS and dripped under direct laryngoscopic vision to form a model group. The experiment was divided into three groups, each having six mice, LPS group (model control group, airway drip of 50 μl LPS), LPS+20 mg/kg group (airway drip of 50 μl LPS, and given 20 mg/kg of TJ01-013 treatment), LPS+Sivelestat group (positive control group, airway drip of 50 μl LPS and given 5 mg/kg of Sivelestat treatment). The mode of administration was intraperitoneal injection, the volume of administration was 5 ml/kg, the frequency of administration was once a day, and the biological deaths and changes in body weights of the mice were observed and recorded every day, and the mice were regarded as physiologically dead if their body weights decreased by 20% or more compared with that before the administration of LPS. Survival curves were plotted based on deaths observed up to 9 days after administration.

[2] = tested on: DSS-induced enteritis mice; assay: DSS-induced inflammatory bowel disease; assay type: in vivo, C57BL/6J mice
Experimental: Eight-week-old C57BL/6J male mice were randomly divided into […], of which, G1 blank control group (8 mice), G2 positive control group (intraperitoneal injection of infliximab 10 mg/kg, 8 mice), G3 group (intraperitoneal injection of small-molecule drug TJ01-013, 5 mg/kg, 12 mice), G4 group (intraperitoneal injection of small-molecule drug TJ01-013, 10 mg/kg, 12 mice) and G5 group (intraperitoneal injection of small-molecule drug TJ01-013, 10 mg/kg, 12 mice). The configuration method of intraperitoneal injection drug was 5% DMSO+30% PEG400+65% ddH2O, the small-molecule compound was first dissolved in 5% DMSO, and then 30% PEG400 and 65% H2O were added sequentially, after 2 weeks of acclimatization, 2% DSS solution was given as drinking water for 6 days, and then was replaced with normal drinking water. During the experiment, the mice were injected intraperitoneally with the corresponding concentration of small-molecule compound every day; and the mice were recorded daily for weight change, fecal shape and blood in stool. During the experiment, the fecal shape and blood in stool were scored, and the disease activity index was calculated on day 3th, day 6th, and day 8th.
At the end of the experiment, after the mice were put to death with CO2, all the intestinal segments from the cecum to the anus were cut, photographed and measured for length.
The middle about 1 cm intestinal segment was taken into the embedding box and immersed in 4% paraformaldehyde, fixed and immersed for 72 h to prepare pathological specimens for HE staining, and the histopathological results were scored; tissue embedding, sectioning and HE staining were performed as follows:
The remaining intestinal segments were washed with pre-cooled saline using a 50 mL syringe, and after washing out the remaining liquid in the intestinal lumen, the tissues were cut into pieces with small scissors and mixed evenly, wrapped in tin foil and then rapidly frozen in liquid nitrogen, and all the operations were controlled to be completed within 10 minutes after the death of the mice. The tissues were lysed by Trizol, and RNA was extracted according to the instructions of Trizol; the obtained RNA was subjected to reverse transcription reaction with the Reverse Transcription Kit from ABI company; SYBR Green method was used to detect the inflammatory factors such as Cxcl1, G-CSF, IL6, IL-1β, S100A8, and TNF-α in the reversed transcription products, and the housekeeping gene Actin was used as an internal reference, and calculated and analyzed by 2-ΔΔCt method.

HGPS-MSC = assay: Senescence of HGPS patient derived mesenchymal stem cells; assay type: cell-based, human; settings: 10 μM
Experimental: Mesenchymal stem cells HGPS-MSC differentiated from pluripotent stem cells (iPSC) of patients with Hutchinson-Gilford Progeria Syndrome (HGPS) were taken for culture, and the experiment was divided into three groups, namely, young cells cultured for 7 generations, labeled as Con-Y; senescent cells cultured for 12 generations, labeled as Con-O; and the administration group to which 10 μM of TJ01-013 was added during the process of culture, similarly cultured up to the 12th generation, labeled as Con-O+TJ01-013; the drug administration group to which 10 μM positive drug Ionafarnib was added during the process of culture, similarly cultured up to the 12th generation, and labeled as Con-O+ Ionafarnib; after the end of the treatment, all the cells were placed under the microscope to observe the morphology of the cells, and the proportion of SA-β-gal+ cells was counted. The levels of DNA damage marker γ-H2AX and heterochromatin modification H3K9me3 after TJ01-013 treatment and Ionafarnib treatment were detected by immunofluorescence technique (the specific procedure was described previously).

[3] = vs model control group, FIG. 23
[4] = vs model control group, FIG. 24

For `O=C(O)C[S+]([O-])c1cc(NS(=O)(=O)c2ccc(Br)cc2)c2ccccc2c1O` (stereo not shown) [I-1], which survival rate [1] is on record?
Its survival rate is “significantly elevated”.

What about the Histopathological scores ([2]; FIG. 23) of the same compound?
The Histopathological scores was “significantly reduced the pathological changes”.

What about the “weight loss of the mice” value ([2]; intraperitoneal injection during DSS induction, FIG. 20) of the same compound?
Its value is “slowing down of the weight loss”.

And the disease activity index ([2]; intraperitoneal injection during DSS induction, FIG. 21)?
Its disease activity index is “reduction of the disease activity index”.

And the colorectal length ([2]; vs model control group, FIG. 22)?
Its colorectal length is “significantly greater”.

And the “colorectal tissue morphology (HE staining)” value [2, 3]?
The value was “more intact”.

And the “inflammatory infiltration of colorectal tissue” value [2, 3]?
The value was “reduced”.

What about the “Cxcl1 expression level in colorectal tissue (q-PCR)” value [2, 4] of the same compound?
Its value is “significantly reduced”.

And the “G-CSF expression level in colorectal tissue (q-PCR)” value [2, 4]?
Its value is “significantly reduced”.

And the “IL6 expression level in colorectal tissue (q-PCR)” value [2, 4]?
The value was “significantly reduced”.

What about the “IL-1β expression level in colorectal tissue (q-PCR)” value [2, 4] of the same compound?
The value was “significantly reduced”.

And the “S100A8 expression level in colorectal tissue (q-PCR)” value [2, 4]?
Its value is “significantly reduced”.

And the “TNF-α expression level in colorectal tissue (q-PCR)” value [2, 4]?
Its value is “significantly reduced”.

And the “percentage of SA-β-gal+ cells” value (HGPS-MSC; 12th generation, vs Con-O, FIG. 54)?
Its value is “significantly decreased”.

And the “level of DNA damage marker γ-H2AX” value (HGPS-MSC; FIG. 55)?
Its value is “significantly reduced”.

And the “expression level of heterochromatin-modified H3K9me3” value (HGPS-MSC; FIG. 56)?
Its value is “restored its expression level to some extent”.
